From patent publication US7345068B2, “Aromatic amino acid derivatives and medicinal compositions” (priority 2002, dated 2008)
Structures can show the parent of a compound that is named as a salt.

Key:
LAT1 = molecular target: T1, LAT1 (Homo sapiens, UniProt Q01650); experiment: LAT1 inhibiting activity: inhibition of 14C-L-leucine uptake in T24 cells; type: cell-based; conditions: 1 μM 14C-Leu, 1-minute uptake
T1 construct: Using human bladder cancer cell strain T24 cells, in which LAT1 only was strongly expressed; endogenous in cells; host or cells: T24 human bladder cancer cells
Description: 1) To each of the weighed test compounds, DMSO was added to prepare a 100 mM solution or suspension as a DMSO stock. In an assay, the stock was diluted 1,000 fold with a buffer described below. The final concentration of the test compound was 100 μM and the final concentration of DMSO was 0.1%.
2) The LAT1 inhibiting activity of the test compound was determined in the following manner. Using human bladder cancer cell strain T24 cells, in which LAT1 only was strongly expressed, inhibiting activity of each test compound against “^14C”-L-leucine uptake was determined as the LAT1 inhibiting activity.
T24 cells in a logarithmic growth-phase were transferred to a 24-well plate at 0.8×10^5 cell/well and cultured at 37° C. for 2 days. After the plate was incubated at 37° C. on a water bath for 5 minutes, the fixed cells were washed three times with a Hank's balanced salt solution (HBSS: 25 mM HEPES, 125 mM choline chloride, 5.6 mM glucose, 4.8 mM KCl, 1.2 mM MgSO4, 1.2 mM KH2PO4, 1.3 mM CaCl2, pH 7.4) warmed to 37° C., not containing Na^+, to which 500 μl of HBSS (37° C.) was added. Then, further incubation was carried out for 7 minutes.
After the incubation was finished, a supernatant was replaced with HBSS containing 1 μM ^14C-Leu and 100 μM test compound (37° C.), followed by 1-minute uptake. Then, the cells were washed three times with HBSS of 4° C. The washed cells were added with 500 μl of 0.1 N NaOH to dissolve the cells for 20 minutes. The cell solution was transferred to a vial, to which 3 ml of a scintillator was added to measure the radioactivity with a liquid scintillation counter.
Inhibition % was calculated by the following formula. Inhibition %=100−(radioactivity of the well added with the test compound)/(radioactivity of the well not added with the test compound)×100

T1 sequence (Q01650 whole entry): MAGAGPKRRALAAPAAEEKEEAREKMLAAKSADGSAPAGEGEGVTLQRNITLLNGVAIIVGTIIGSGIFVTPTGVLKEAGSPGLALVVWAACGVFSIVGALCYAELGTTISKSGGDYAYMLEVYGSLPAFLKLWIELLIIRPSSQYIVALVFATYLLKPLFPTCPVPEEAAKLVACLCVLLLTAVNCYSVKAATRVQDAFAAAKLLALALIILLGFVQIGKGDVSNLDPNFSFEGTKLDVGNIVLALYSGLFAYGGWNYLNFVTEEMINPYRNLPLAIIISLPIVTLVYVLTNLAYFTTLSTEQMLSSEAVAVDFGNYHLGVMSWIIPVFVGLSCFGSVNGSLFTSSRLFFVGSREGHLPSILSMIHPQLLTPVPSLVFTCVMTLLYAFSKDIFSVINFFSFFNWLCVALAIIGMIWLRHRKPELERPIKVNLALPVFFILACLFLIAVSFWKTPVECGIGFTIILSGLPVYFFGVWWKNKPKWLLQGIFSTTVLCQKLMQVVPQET
T1 sequence (P08195 102-630 partner): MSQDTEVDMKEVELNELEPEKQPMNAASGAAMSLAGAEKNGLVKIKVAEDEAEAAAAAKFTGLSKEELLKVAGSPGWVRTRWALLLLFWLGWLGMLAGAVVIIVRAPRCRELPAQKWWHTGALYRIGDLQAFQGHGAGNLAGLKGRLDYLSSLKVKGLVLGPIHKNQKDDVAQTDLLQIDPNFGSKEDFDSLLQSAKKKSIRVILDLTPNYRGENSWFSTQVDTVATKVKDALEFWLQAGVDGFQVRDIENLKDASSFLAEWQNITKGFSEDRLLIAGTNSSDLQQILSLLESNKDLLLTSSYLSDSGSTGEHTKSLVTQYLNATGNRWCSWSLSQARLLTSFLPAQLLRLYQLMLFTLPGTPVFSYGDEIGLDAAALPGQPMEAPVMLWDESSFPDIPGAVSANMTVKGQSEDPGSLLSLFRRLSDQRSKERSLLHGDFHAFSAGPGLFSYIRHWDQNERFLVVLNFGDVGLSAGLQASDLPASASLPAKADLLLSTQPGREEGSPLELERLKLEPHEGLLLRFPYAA

| IC50 (LAT1) | melting point | SMILES |
| --- | --- | --- |
| 670 nM | 191 to 194 °C (dec.) | CN(C)c1ncc(-c2cccc(Oc3cccc(C[C@H](N)C(=O)O)c3)c2)cn1 [Example 108] |
| 830 nM | 185 to 190 °C (dec.) | N[C@@H](Cc1cccc(Oc2cccc(-c3cnc4ccccc4c3)c2)c1)C(=O)O [Example 106] |
| 200 nM | – | CN(C)c1ccc(-c2cccc(Oc3cccc(C[C@H](N)C(=O)O)c3)c2)cn1 [Example 98] |
| 170 nM | 214 to 217 °C (dec.) | N[C@@H](Cc1cccc(Oc2ccc(-c3ccccc3)cc2)c1)C(=O)O [Example 93] |
| 300 nM | 209 to 211 °C | N[C@@H](Cc1cc(Cl)c(OCc2cccc3nc(-c4ccc(Cl)cc4)oc23)c(Cl)c1)C(=O)O [Example 30] |
| 110 nM | 200 to 208 °C (dec.) | N[C@@H](Cc1cc(Cl)c(OCc2cccc3nc4n(c23)Cc2ccccc2-4)c(Cl)c1)C(=O)O [Example 73] |
| 60 nM | 193 to 198 °C (dec.) | N[C@@H](Cc1cccc(Oc2cccc(-c3cccc(Cl)c3)c2)c1)C(=O)O [Example 102] |
| 220 nM | 200 to 204 °C (dec.) | N[C@@H](Cc1cccc(Oc2cccc(-c3cccnc3)c2)c1)C(=O)O [Example 100] |
| 330 nM | 233 to 236 °C (dec.) | CN(C)c1ccc(-c2nc3cccc(COc4c(Cl)cc(C[C@H](N)C(=O)O)cc4Cl)c3o2)cn1 [Example 65] |
| 370 nM | 199 to 204 °C (dec.) | NC(Cc1cc(Cl)c(OCc2cccc3c2OC(c2ccccc2)CN3)c(Cl)c1)C(=O)O (stereo not shown) [Example 71] |
| 10 nM | 214 to 218 °C (dec.) | CN(C)c1ccc(-c2cccc(Oc3cccc(C[C@H](N)C(=O)O)c3)c2)cn1 [Example 97] |
| 290 nM | 202 to 206 °C (dec.) | COc1ccc2cc(Oc3cccc(C[C@H](N)C(=O)O)c3)ccc2c1 [Example 55, 3-[2-(6-methoxy)naphthyloxy]-L-phenylalanine] |
| 260 nM | 210 to 220 °C (dec.) | N[C@@H](Cc1cccc(Oc2ccc3cc(O)ccc3c2)c1)C(=O)O [Example 56, 3-[2-(6-hydroxy)naphthyloxy]-L-phenylalanine] |
| 330 nM | 219 to 223 °C (dec.) | N[C@@H](Cc1cc(Cl)c(OCc2cccc3oc(-c4ccccc4)nc23)c(Cl)c1)C(=O)O [Example 38] |
| 550 nM | 226 to 230 °C (dec.) | Nc1c(-c2ccccc2)oc2c(COc3c(Cl)cc(C[C@H](N)C(=O)O)cc3Cl)cccc2c1=O [Example 83] |
| 940 nM | 198 to 200.5 °C (dec.) | N[C@@H](Cc1cc(Cl)c(OCc2cccc3nc(Cc4ccccc4)oc23)c(Cl)c1)C(=O)O [Example 63] |
| 120 nM | 203 to 206 °C (dec.) | N[C@@H](Cc1cccc(Oc2cccc(-c3ccccc3)c2)c1)C(=O)O [Example 53] |
| 130 nM | 219 to 222 °C (dec.) | CN(C)c1ccc(-c2nc3cccc(COc4c(Cl)cc(C[C@H](N)C(=O)O)cc4Cl)c3o2)cc1 [Example 37] |
| 270 nM | 183 to 187 °C (dec.) | N[C@@H](Cc1cc(Cl)c(OCc2cccc3nc(-c4ccccc4)[nH]c23)c(Cl)c1)C(=O)O [Example 85] |
| 230 nM | 202 to 204 °C (dec.) | Cc1c(-c2ccccc2)oc2c(COc3c(Cl)cc(C[C@H](N)C(=O)O)cc3Cl)cccc2c1=O [Example 39] |
| 280 nM | 210 to 213 °C (dec.) | COc1ccc(-c2nc3cc(C)cc(COc4c(Cl)cc(C[C@H](N)C(=O)O)cc4Cl)c3o2)cc1 [Example 35] |

| IC50 (LAT1) | melting point | SMILES |
| --- | --- | --- |
| 150 nM | 214 to 218 °C (dec.) | N[C@@H](Cc1cc(Cl)c(OCc2cccc3nc(-c4ccncc4)oc23)c(Cl)c1)C(=O)O [Example 33] |
| 110 nM | 203 to 210 °C (dec.) | Cc1cc(C[C@H](N)C(=O)O)cc(C)c1OCc1cccc2nc(-c3ccccc3)oc12 [Example 90] |
| 200 nM | 221 to 231 °C (dec.) | Cc1ccc(-c2nc3cccc(COc4c(Cl)cc(C[C@H](N)C(=O)O)cc4Cl)c3o2)cc1 [Example 36] |
| 60 nM | 204 to 208 °C (dec.) | N[C@@H](Cc1cccc(Oc2cccc(-c3ccc(Cl)cc3)c2)c1)C(=O)O [Example 103] |
| 200 nM | 218 to 221 °C (dec.) | N[C@@H](Cc1cc(Cl)c(OCc2cccc3c(=O)c(CO)c(-c4ccccc4)oc23)c(Cl)c1)C(=O)O [Example 81] |
| 840 nM | 182 to 185 °C (dec.) | N[C@@H](Cc1cccc(Oc2cccc(-c3ccncc3)c2)c1)C(=O)O [Example 96] |
| 100 nM | 207 to 210 °C (dec.) | Cc1c(-c2ccccc2)oc2c(CNc3c(Cl)cc(C[C@H](N)C(=O)O)cc3Cl)cccc2c1=O [Example 91] |
| 240 nM | 233 to 236 °C (dec.) | N[C@@H](Cc1cc(Cl)c(OCc2cccc3nc(-c4ccc(F)cc4)oc23)c(Cl)c1)C(=O)O [Example 32] |
| 360 nM | 212 to 215 °C (dec.) | CN(CCO)c1ncc(-c2nc3cccc(COc4c(Cl)cc(C[C@H](N)C(=O)O)cc4Cl)c3o2)cn1 [Example 72] |
| 100 nM | 210 to 214 °C (dec.) | N[C@@H](Cc1cccc(Oc2ccc3ccccc3c2)c1)C(=O)O [Example 49-2), 3-(2-naphthyloxy)-L-phenylalanine] |
| 290 nM | 227 to 230 °C (dec.) | N[C@@H](Cc1cc(Cl)c(OCc2cccc3nc(-c4ccco4)oc23)c(Cl)c1)C(=O)O [Example 34] |
| 290 nM | 218 to 221 °C (dec.) | CN(C)c1ncc(-c2nc3cccc(COc4c(Cl)cc(C[C@H](N)C(=O)O)cc4Cl)c3o2)cn1 [Example 70] |
| – | 213 to 215 °C (dec.) | N[C@@H](Cc1cc(I)c(OCCCBr)c(I)c1)C(=O)O [Example 1, O-(3-bromopropyl)-3,5-diiodo-L-tyrosine] |
| 230 nM | – | COC(=O)c1c(-c2ccccc2)oc2c(COc3c(Cl)cc(C[C@H](N)C(=O)O)cc3Cl)cccc2c1=O [Example 87] |
| 300 nM | – | N[C@@H](Cc1cc(Cl)c(OCc2cccc3nc(-c4cccc(O)c4)oc23)c(Cl)c1)C(=O)O [Example 48] |
| 490 nM | 201 to 204 °C (dec.) | N[C@@H](Cc1cccc(OCc2ccc3ccccc3c2)c1)C(=O)O [Example 58, 3-[(2-naphthyl)methoxy]-L-phenylalanine] |
| 200 nM | 239 to 241 °C (dec.) | N[C@@H](Cc1cc(Cl)c(OCc2cccc3nc(-c4ccc(O)cc4)oc23)c(Cl)c1)C(=O)O [Example 22] |
| 810 nM | 199 to 201 °C (dec.) | N[C@@H](Cc1cccc(-c2cccc(-c3ccccc3)c2)c1)C(=O)O [Example 112] |
| – | 223 to 228 °C (dec.) | CN(C)c1ccc(-c2cccc(Oc3cccc(C[C@H](N)C(=O)O)c3)c2)cn1 (as salt: hydrochloride) [Example 98] |
| – | 222.5 to 224 °C (dec.) | COC(=O)c1c(-c2ccccc2)oc2c(COc3c(Cl)cc(C[C@H](N)C(=O)O)cc3Cl)cccc2c1=O (as salt: HCl) [Example 87] |
